#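 Briefly, cells in 96-well plates were exposed to five compound concentrations for 48 h, and endpoints were estimated by linear interpolation. TGI marks complete inhibition of growth.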
# What was measured:
# Test in all cases: growth of human tumour cells (NCI), 48 h
# HL-60(TB) leukemia = system: HL-60(TB) leukemia
# PC-3 prostate = system: PC-3 prostate
# UACC-62 melanoma = system: UACC-62 melanoma
# HCT-116 colon = system: HCT-116 colon
# HCC-2998 colon = system: HCC-2998 colon
# UO-31 renal = system: UO-31 renal
# MDA-MB-231 breast = system: MDA-MB-231 breast
# K-562 leukemia = system: K-562 leukemia
# EKVX NSCLC = system: EKVX NSCLC
# COLO 205 colon = system: COLO 205 colon
# SK-OV-3 ovarian = system: SK-OV-3 ovarian
# DU-145 prostate = system: DU-145 prostate
# OVCAR-8 ovarian = system: OVCAR-8 ovarian
# OVCAR-5 ovarian = system: OVCAR-5 ovarian
# T-47D breast = system: T-47D breast
# SNB-75 CNS = system: SNB-75 CNS
# U251 CNS = system: U251 CNS
# MALME-3M melanoma = system: MALME-3M melanoma
# HOP-62 NSCLC = system: HOP-62 NSCLC
# ACHN renal = system: ACHN renal
# CAKI-1 renal = system: CAKI-1 renal
# OVCAR-3 ovarian = system: OVCAR-3 ovarian
# LOX IMVI melanoma = system: LOX IMVI melanoma
# HOP-92 NSCLC = system: HOP-92 NSCLC
# BT-549 breast = system: BT-549 breast
# MDA-MB-435 = system: MDA-MB-435
# MDA-N = system: MDA-N
# IGROV1 ovarian = system: IGROV1 ovarian
# NCI-H522 lung = system: NCI-H522 lung
# MCF7 breast = system: MCF7 breast
# UACC-257 melanoma = system: UACC-257 melanoma
# 786-0 renal = system: 786-0 renal
# OVCAR-4 ovarian = system: OVCAR-4 ovarian
# RXF 393 renal = system: RXF 393 renal
# SF-268 CNS = system: SF-268 CNS
# SK-MEL-5 melanoma = system: SK-MEL-5 melanoma
# SR leukemia = system: SR leukemia
# KM12 colon = system: KM12 colon
# SK-MEL-2 melanoma = system: SK-MEL-2 melanoma
# NCI-H460 lung = system: NCI-H460 lung
# NCI-H23 lung = system: NCI-H23 lung
# CCRF-CEM leukemia = system: CCRF-CEM leukemia
# A498 renal = system: A498 renal
# SF-295 CNS = system: SF-295 CNS
# SN12C renal = system: SN12C renal
# HT29 colon = system: HT29 colon
# M14 melanoma = system: M14 melanoma
# SNB-19 CNS = system: SNB-19 CNS
# HS 578T breast = system: HS 578T breast
# RPMI-8226 leukemia = system: RPMI-8226 leukemia
# HCT-15 colon = system: HCT-15 colon
# SW-620 colon = system: SW-620 colon
# NCI-H226 lung = system: NCI-H226 lung
# SF-539 CNS = system: SF-539 CNS
# A549 NSCLC = system: A549 NSCLC
# MOLT-4 leukemia = system: MOLT-4 leukemia
# SK-MEL-28 melanoma = system: SK-MEL-28 melanoma
# TK-10 renal = system: TK-10 renal
# NCI/ADR-RES ovarian = system: NCI/ADR-RES ovarian
smiles,measurement,setting,value
O=C1Sc2cc3ccccc3cc2C(=O)Sc2cc3ccccc3cc21,TGI,HL-60(TB) leukemia,27.1 µM
same,TGI,PC-3 prostate,> 100 µM
same,TGI,UACC-62 melanoma,67.2 µM
same,TGI,HCT-116 colon,38.5 µM
same,TGI,HCC-2998 colon,58.7 µM
same,TGI,UO-31 renal,37.1 µM
same,TGI,MDA-MB-231 breast,> 100 µM
same,TGI,K-562 leukemia,> 100 µM
same,TGI,EKVX NSCLC,> 100 µM
same,TGI,COLO 205 colon,> 100 µM
same,TGI,SK-OV-3 ovarian,> 100 µM
same,TGI,DU-145 prostate,> 100 µM
same,TGI,OVCAR-8 ovarian,> 89.2 µM
same,TGI,OVCAR-5 ovarian,> 100 µM
same,TGI,T-47D breast,> 75 µM
same,TGI,SNB-75 CNS,> 100 µM
same,TGI,U251 CNS,> 100 µM
same,TGI,MALME-3M melanoma,> 93.5 µM
same,TGI,HOP-62 NSCLC,> 85.2 µM
same,TGI,ACHN renal,> 63.6 µM
same,TGI,CAKI-1 renal,> 90.1 µM
same,TGI,OVCAR-3 ovarian,> 63.5 µM
same,TGI,LOX IMVI melanoma,48.1 µM
same,TGI,HOP-92 NSCLC,> 87.6 µM
same,TGI,BT-549 breast,> 100 µM
same,TGI,MDA-MB-435,> 100 µM
same,TGI,MDA-N,> 100 µM
same,TGI,IGROV1 ovarian,> 100 µM
same,TGI,NCI-H522 lung,41.5 µM
same,TGI,MCF7 breast,> 100 µM
same,TGI,UACC-257 melanoma,> 78.7 µM
same,TGI,786-0 renal,59 µM
same,TGI,OVCAR-4 ovarian,69.5 µM
same,TGI,RXF 393 renal,35.7 µM
same,TGI,SF-268 CNS,> 83.7 µM
same,TGI,SK-MEL-5 melanoma,> 100 µM
same,TGI,SR leukemia,9.27 µM
same,TGI,KM12 colon,> 100 µM
same,TGI,SK-MEL-2 melanoma,> 66.5 µM
same,TGI,NCI-H460 lung,> 100 µM
same,TGI,NCI-H23 lung,> 100 µM
same,TGI,CCRF-CEM leukemia,12.5 µM
same,TGI,A498 renal,> 100 µM
same,TGI,SF-295 CNS,> 100 µM
same,TGI,SN12C renal,75.7 µM
same,TGI,HT29 colon,> 90.5 µM
same,TGI,M14 melanoma,> 63.9 µM
same,TGI,SNB-19 CNS,> 100 µM
same,TGI,HS 578T breast,> 100 µM
same,TGI,RPMI-8226 leukemia,> 24.6 µM
same,TGI,HCT-15 colon,90.7 µM
same,TGI,SW-620 colon,> 100 µM
same,TGI,NCI-H226 lung,> 100 µM
same,TGI,SF-539 CNS,> 100 µM
same,TGI,A549 NSCLC,> 100 µM
same,TGI,MOLT-4 leukemia,76.8 µM
same,TGI,SK-MEL-28 melanoma,> 85.4 µM
same,TGI,TK-10 renal,> 100 µM
same,TGI,NCI/ADR-RES ovarian,> 92.3 µM
COC(CC1(CCNc2ccccc2)C(=O)N(COCC[Si](C)(C)C)c2ccccc21)OC (stereo not drawn),TGI,HL-60(TB) leukemia,98.2 µM
same,TGI,PC-3 prostate,27.8 µM
same,TGI,UACC-62 melanoma,29.8 µM
same,TGI,HCT-116 colon,32.5 µM
same,TGI,HCC-2998 colon,4.12 µM
same,TGI,UO-31 renal,29.6 µM
same,TGI,MDA-MB-231 breast,48.4 µM
same,TGI,K-562 leukemia,> 100 µM
same,TGI,EKVX NSCLC,31.7 µM
same,TGI,COLO 205 colon,9.09 µM
same,TGI,SK-OV-3 ovarian,30 µM
same,TGI,DU-145 prostate,64.7 µM
same,TGI,OVCAR-8 ovarian,35.1 µM
same,TGI,OVCAR-5 ovarian,35 µM
same,TGI,T-47D breast,56.3 µM
same,TGI,SNB-75 CNS,14.3 µM
same,TGI,U251 CNS,> 61 µM
same,TGI,HOP-62 NSCLC,28 µM
same,TGI,ACHN renal,37.1 µM
same,TGI,CAKI-1 renal,> 62.2 µM
same,TGI,OVCAR-3 ovarian,31.6 µM
same,TGI,LOX IMVI melanoma,29.7 µM
same,TGI,HOP-92 NSCLC,42.2 µM
same,TGI,BT-549 breast,32.5 µM
same,TGI,MDA-MB-435,38.5 µM
same,TGI,MDA-N,> 68.2 µM
same,TGI,IGROV1 ovarian,21.4 µM
same,TGI,NCI-H522 lung,24.2 µM
same,TGI,MCF7 breast,30.4 µM
same,TGI,UACC-257 melanoma,29.5 µM
same,TGI,786-0 renal,25.4 µM
same,TGI,OVCAR-4 ovarian,28.6 µM
same,TGI,RXF 393 renal,29.4 µM
same,TGI,SF-268 CNS,26.3 µM
same,TGI,SK-MEL-5 melanoma,> 100 µM
same,TGI,SR leukemia,> 100 µM
same,TGI,KM12 colon,23.8 µM
same,TGI,SK-MEL-2 melanoma,29.9 µM
same,TGI,NCI-H460 lung,34.4 µM
same,TGI,NCI-H23 lung,32.9 µM
same,TGI,CCRF-CEM leukemia,> 31.6 µM
same,TGI,A498 renal,47.5 µM
same,TGI,SF-295 CNS,32 µM
same,TGI,SN12C renal,53.6 µM
same,TGI,HT29 colon,30 µM
same,TGI,M14 melanoma,6.92 µM
same,TGI,SNB-19 CNS,33.1 µM
same,TGI,HS 578T breast,41.4 µM
same,TGI,RPMI-8226 leukemia,> 100 µM
same,TGI,HCT-15 colon,34.2 µM
same,TGI,SW-620 colon,> 55.3 µM
same,TGI,NCI-H226 lung,21.4 µM
same,TGI,A549 NSCLC,34.3 µM
same,TGI,MOLT-4 leukemia,> 100 µM
same,TGI,SK-MEL-28 melanoma,30.1 µM
same,TGI,TK-10 renal,28.9 µM
same,TGI,NCI/ADR-RES ovarian,39.6 µM
CN(c1ccc(Cl)cc1)S(=O)(=O)c1ccccc1,TGI,HL-60(TB) leukemia,> 100 µM
same,TGI,PC-3 prostate,> 100 µM
same,TGI,UACC-62 melanoma,> 100 µM
same,TGI,HCT-116 colon,> 100 µM
same,TGI,HCC-2998 colon,> 100 µM
same,TGI,UO-31 renal,> 100 µM
same,TGI,MDA-MB-231 breast,> 100 µM
same,TGI,K-562 leukemia,> 100 µM
same,TGI,EKVX NSCLC,> 100 µM
same,TGI,COLO 205 colon,> 100 µM
same,TGI,SK-OV-3 ovarian,> 100 µM
same,TGI,DU-145 prostate,> 100 µM
same,TGI,OVCAR-8 ovarian,> 100 µM
same,TGI,OVCAR-5 ovarian,> 100 µM
same,TGI,T-47D breast,> 100 µM
same,TGI,SNB-75 CNS,> 100 µM
same,TGI,U251 CNS,> 100 µM
same,TGI,MALME-3M melanoma,> 100 µM
same,TGI,HOP-62 NSCLC,> 100 µM
same,TGI,ACHN renal,> 100 µM
same,TGI,CAKI-1 renal,> 100 µM
same,TGI,OVCAR-3 ovarian,> 100 µM
same,TGI,LOX IMVI melanoma,> 100 µM
same,TGI,BT-549 breast,> 100 µM
same,TGI,MDA-MB-435,> 100 µM
same,TGI,MDA-N,> 100 µM
same,TGI,IGROV1 ovarian,> 100 µM
same,TGI,NCI-H522 lung,> 100 µM
same,TGI,MCF7 breast,> 100 µM
same,TGI,UACC-257 melanoma,> 100 µM
same,TGI,786-0 renal,> 100 µM
same,TGI,OVCAR-4 ovarian,> 100 µM
same,TGI,RXF 393 renal,62.3 µM
same,TGI,SF-268 CNS,> 100 µM
same,TGI,SK-MEL-5 melanoma,47 µM
same,TGI,SR leukemia,> 100 µM
same,TGI,KM12 colon,> 100 µM
same,TGI,SK-MEL-2 melanoma,> 100 µM
same,TGI,NCI-H460 lung,> 100 µM
same,TGI,NCI-H23 lung,> 100 µM
same,TGI,CCRF-CEM leukemia,> 100 µM
same,TGI,SF-295 CNS,> 100 µM
same,TGI,SN12C renal,> 100 µM
same,TGI,HT29 colon,> 100 µM
same,TGI,M14 melanoma,> 100 µM
same,TGI,SNB-19 CNS,> 100 µM
same,TGI,HS 578T breast,> 100 µM
same,TGI,RPMI-8226 leukemia,> 100 µM
same,TGI,HCT-15 colon,> 100 µM
same,TGI,SW-620 colon,> 100 µM
same,TGI,NCI-H226 lung,> 100 µM
same,TGI,SF-539 CNS,> 100 µM
same,TGI,A549 NSCLC,> 100 µM
same,TGI,MOLT-4 leukemia,> 100 µM
same,TGI,SK-MEL-28 melanoma,> 100 µM
same,TGI,TK-10 renal,> 100 µM
same,TGI,NCI/ADR-RES ovarian,> 100 µM

# Source: PubChem BioAssay (NCI)
